Holding throughout (type): physicochemical
The nature of series [1]: D50 particle size of milled drug, X-ray diffraction. The conditions noted are these: size detection by X-ray diffraction; after magnetic stir-bar milling, parameters of Table 2. An excerpt:
(§1) Valdecoxib, linezolid, phenytoin, griseofulvin and carbamazepine were milled according to the general procedure described for celecoxib in Example 1.

Series [2] in a line: D50 particle size of milled drug, turbidimetry. The conditions noted are these: size detection by turbidimetry; after magnetic stir-bar milling, parameters of Table 2.
Text: as §1

Series [3] is described as follows: D50 particle size of milled drug, optical microscopy. The conditions noted are these: size detection by optical microscopy; after magnetic stir-bar milling, parameters of Table 2.
Text: as §1

As to `NC(=O)N1c2ccccc2C=Cc2ccccc21` [Carbamazepine], the “D50 (nm)” value in series [1] is reported as 2600^3 nm; in series [2], 2500^1 nm.
Regarding `COC1=CC(=O)C[C@@H](C)[C@]12Oc1c(Cl)c(OC)cc(OC)c1C2=O` [Griseofulvin], the “D50 (nm)” value in series [1] was 160^3 nm; in series [2], 250^1 nm.
With `CC(=O)NC[C@H]1CN(c2ccc(N3CCOCC3)c(F)c2)C(=O)O1` [Linezolid], the “D50 (nm)” value is listed as 1000^2 nm in series [3] and 1900^1 nm in series [2].
Consider `O=C1NC(=O)C(c2ccccc2)(c2ccccc2)N1` [Phenytoin], for which the “D50 (nm)” value in series [1] is on record as 130^3 nm; in series [2], 200^1 nm.
On to `Cc1onc(-c2ccccc2)c1-c1ccc(S(N)(=O)=O)cc1` [Valdecoxib], for which the “D50 (nm)” value in series [2] was 460^1 nm.

These data come from patent US6814319B2, “Laboratory scale milling process” (Pharmacia & Upjohn Company, priority 2000, dated 2004).
